Patent publication US7332476B2, “Pyridyl substituted ketolide antibiotics” (Novartis AG, priority 2003, dated 2008)
Values after ≈ are worked out from the molar mass of the structure shown.

What was measured:
Assay in all cases: MIC, broth microdilution (NCCLS)
[1] = system: Streptococcus pneumoniae Stpn_Mef 5654; type: cell-based; details: Table 5, Strain ID J (Table 4): S. pneumoniae Stpn_Mef 5654; in µg/mL (unit assumed)
Method in brief: (§1)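 Broth microdilution per NCCLS in cation-adjusted Mueller-Hinton broth, with 2-5% lysed horse blood added for S. pneumoniae. Inoculum 3×10^5–7×10^5 CFU/ml, 2-fold drug dilutions, 18-24 h at 35° C; S. pneumoniae under 5-10% CO2, others ambient air. MIC = lowest concentration preventing visible growth.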

[2] = system: Staphylococcus epidermidis Step_14990; type: cell-based; details: in µg/mL (unit assumed); for MIC: Table 5, Strain ID A (Table 4): S. epidermidis Step_14990; for MIC, strain ID C: broth microdilution
Method in brief: as §1

[3] = system: Streptococcus pneumoniae Stpn_Erm S 4297; type: cell-based; details: for MIC: Table 5, Strain ID I (Table 4): S. pneumoniae Stpn_Erm S 4297; for MIC, strain ID Q: broth microdilution, in µg/mL (unit assumed)
Method in brief: as §1

[4] = system: Enterococcus faecalis Enfa_29212; type: cell-based; details: for MIC: Table 5, Strain ID C (Table 4): E. faecalis Enfa_29212; for MIC, strain ID E: broth microdilution
Method in brief: as §1

[5] = system: Staphylococcus epidermidis Step_f50654; type: cell-based; details: in µg/mL (unit assumed); for MIC: Table 5, Strain ID B (Table 4): S. epidermidis Step_f50654 Pen S; for MIC, strain ID D: broth microdilution
Method in brief: as §1

[6] = system: Streptococcus pneumoniae Stpn_Mef S 3427; type: cell-based; details: Table 5, Strain ID K (Table 4): S. pneumoniae Stpn_Mef S 3427
Method in brief: as §1

[7] = system: Haemophilus influenzae Hain_49247; type: cell-based; details: unit assumed; for MIC: Table 5, Strain ID L (Table 4): H. influenzae Hain_49247; for MIC, strain ID H: broth microdilution
[8] = system: E. coli Esco_25922; type: cell-based; details: Table 5, Strain ID M (Table 4): E. coli Esco_25922; unit assumed
Procedure: Strains. The bacterial isolates listed in Table 4 were cultivated from −70° C. frozen stocks by two consecutive overnight passages (P1, P2) at 35° C. on 5% blood agar (Remel, Lenexa, Kans.). Chocolate agar (Remel) is used for Haemophilus influenzae. H. influenzae and Streptococcus pneumoniae are incubated in 5-10% CO2
Drug Stock Preparation. To determine the amount of solvent to be used to give the desired final concentration, the formula “weight obtained in mg/final concentration in mg/ml” will be used. It will give the amount of solvent in ml needed to be added to give the desired concentration. For example, if 2.5 mg/ml is the desired concentration and the weight of compound is 13.7 mg, then the amount of solvent to be added is […]. Methanol is used as the solvent to dissolve the test compounds. Further dilution of stock is done in sterile, deionized water. Drug stocks are kept frozen at −70° C., protected from light.
Susceptibility Testing. MICs are determined by the broth microdilution method in accordance with the NCCLS guidelines. In brief, organism suspensions are adjusted to a 0.5 McFarland standard to yield a final inoculum between 3×10^5 and 7×10^5 CFU/ml. Drug dilutions and inocula are made in sterile, cation adjusted Mueller-Hinton Broth (CAMHB) (Remel) for all but S. pneumoniae [CAMHB with 2-5% lysed horse blood (Remel)] and H. influenzae [Haemophilus Test Medium (Remel)]. An inoculum volume of 100 μl is added to wells containing 100 μl of broth with 2-fold serial dilutions of drug. All inoculated microdilution trays are incubated in ambient air at 35° C. for 18-24 hours, except for S. pneumoniae, and H. influenzae (both at 5-10% CO2).
Following appropriate incubation, the MIC is determined and the MIC is defined as the lowest concentration of the drug that prevented visible growth.

[9] = system: Streptococcus pneumoniae Stpn_297-749; type: cell-based; parameters: MIC, strain ID N: unit not given here; details: for MIC: Table 5, Strain ID F (Table 4): S. pneumoniae Stpn_297-749 Pen R; for MIC, strain ID N: broth microdilution
Method in brief: as §1

[10] = system: S. pneumoniae Stpn_Erm 6849; type: cell-based, Streptococcus pneumoniae; details: for MIC: Table 5, Strain ID H (Table 4): S. pneumoniae Stpn_Erm 6849, unit assumed; for MIC, strain ID P: broth microdilution, in µg/mL (unit assumed)
Method in brief: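 Lowest drug concentration giving no visible growth after 18-24 hours at 35° C. under 5-10% CO2 was taken as MIC. Twofold serial dilutions in CAMHB plus 2-5% lysed horse blood, final inoculum 3×10^5–7×10^5 CFU/ml, per NCCLS microdilution.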

[11] = system: Streptococcus pneumoniae Stpn_49619; type: cell-based; parameters: MIC, strain ID M: unit not given beside the values; details: for MIC: Table 5, Strain ID E (Table 4): S. pneumoniae Stpn_49619; for MIC, strain ID M: broth microdilution
Method in brief: as §1

[12] = system: Streptococcus pyogenes Stpy_8668; type: cell-based; parameters: MIC, strain ID G: unit not given beside the values; details: for MIC: Table 5, Strain ID D (Table 4): S. pyogenes Stpy_8668; for MIC, strain ID G: broth microdilution
Method in brief: as §1

[13] = system: Streptococcus pneumoniae Stpn_280-962; type: cell-based; parameters: MIC, strain ID O: unit not given beside the values; details: for MIC: Table 5, Strain ID G (Table 4): S. pneumoniae Stpn_280-962 Pen S; for MIC, strain ID O: broth microdilution
Method in brief: as §1

[14] = system: Enterococcus faecalis Enfa_bc 11148-2; type: cell-based; details: strain ID F; broth microdilution; in µg/mL (unit assumed)
Method in brief: (§2)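 Broth microdilution per NCCLS in cation-adjusted Mueller-Hinton broth, or Haemophilus Test Medium for H. influenzae, with 2-fold serial drug dilutions and 3×10^5–7×10^5 CFU/ml inoculum. Trays incubated 18-24 hours at 35° C (H. influenzae in 5-10% CO2). MIC = lowest concentration preventing visible growth.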

[15] = system: Haemophilus influenzae Hain_2762; type: cell-based; details: strain ID L; broth microdilution; in µg/mL (unit assumed)
Method in brief: as §2

[16] = system: Haemophilus influenzae Hain_960730503-3; type: cell-based; details: strain ID I; broth microdilution; in µg/mL (unit assumed)
Method in brief: as §2

[17] = system: Haemophilus influenzae Hain_960820544-3; type: cell-based; details: strain ID J; broth microdilution; in µg/mL (unit assumed)
Method in brief: as §2

[18] = system: Staphylococcus aureus Stau_33591; type: cell-based; details: strain ID B; broth microdilution; unit assumed
Method in brief: as §2

[19] = system: Haemophilus influenzae Hain_953460299-3; type: cell-based; details: strain ID K; broth microdilution; in µg/mL (unit assumed)
Method in brief: as §2

[20] = system: Staphylococcus aureus Stau_29213; type: cell-based; details: strain ID A; broth microdilution; in µg/mL (unit assumed)
Method in brief: as §1

Structure (SMILES)	MIC [1]	MIC [2]	MIC [5]	MIC [7] [µg/mL]	MIC [8] [µg/mL]	MIC [9]	MIC [10] [µg/mL]	MIC [13]	MIC [6]	MIC [11]	MIC [12]	MIC, strain ID F [14]	MIC, strain ID L [15]	MIC, strain ID I [16]	MIC, strain ID J [17]	MIC, strain ID B [18] [µg/mL]	MIC, strain ID K [19]	MIC, strain ID C [2]	MIC, strain ID Q [3]	MIC, strain ID E ([4]; in µg/mL (unit assumed))	also measured
CC[C@H]1OC(=O)[C@H](C)C(=O)[C@H](C)[C@@H](OC2O[C@H](C)C[C@H](N(C)C)[C@H]2O)[C@@](C)(OC)C[C@@H](C)C(=O)[C@H](C)[C@H]2NC(=O)O[C@@H]21 (stereo partly drawn) [Compound 4266]	0.2	3.13	3.13	25 (≈ 41.8 µM)	> 50	=0.05	> 50	=0.05	–	–	–	–	–	–	–	–	–	–	–	–	MIC ([3]; unit assumed): > 50 µg/mL; MIC ([4]; in µg/mL (unit assumed)): 1.56; MIC ([6]; in µg/mL (unit assumed)): 0.1; MIC ([11]; unit assumed): 0.2 µg/mL (≈ 0.334 µM); MIC ([12]; unit assumed): 0.1 µg/mL (≈ 0.167 µM)
CC[C@H]1OC(=O)[C@H](C)C(=O)[C@H](C)[C@@H](OC2O[C@H](C)C[C@H](N(C)C)[C@H]2O)[C@@](C)(OC)C[C@@H](C)C(=O)[C@H](C)[C@@H]2[C@@H]1OC(=O)N2CCCCn1cnc(-c2ccccc2)c1 (stereo partly drawn) [Compound 4710]	0.2	0.1	0.2	3.13 (≈ 3.93 µM)	50 (≈ 62.7 µM)	=0.5	0.2 (≈ 0.251 µM)	=0.5	=0.5	=0.5	=0.5	–	–	–	–	–	–	–	–	–	MIC [3]: =0.05; MIC [4]: =0.05
CC[C@H]1OC(=O)[C@H](C)C(=O)[C@H](C)[C@@H](OC2O[C@H](C)C[C@H](N(C)C)[C@H]2O)[C@@](C)(OC)C[C@@H](C)C(=O)[C@H](C)[C@@H]2[C@@H]1OC(=O)N2CCCCc1ccnc2ccccc12 (stereo partly drawn) [Compound 4711]	0.1	0.1	0.1	1.56 (≈ 1.99 µM)	50 (≈ 63.9 µM)	=0.5	6.25 (≈ 7.99 µM)	=0.5	=0.5	=0.5	=0.5	–	–	–	–	–	–	–	–	–	MIC ([3]; unit assumed): 0.2 µg/mL (≈ 0.256 µM); MIC [4]: =0.05
CC[C@H]1OC(=O)[C@H](C)C(=O)[C@H](C)[C@@H](OC2O[C@H](C)C[C@H](N(C)C)[C@H]2O)[C@@](C)(OC)C[C@@H](C)C(=O)[C@H](C)[C@H]2N(CCCCc3ccnc4ccccc34)C(=O)O[C@]12CC (stereo partly drawn) [Compound 7283]	0.4	–	0.2	–	12.5 (≈ 15.4 µM)	=0.05	0.4 (≈ 0.494 µM)	=0.05	=0.05	=0.05	=0.05	–	–	–	–	–	–	–	–	–	–
C=C[C@]12OC(=O)N(CCCCn3cnc(-c4ccc(Cl)nc4)c3C)[C@@H]1[C@@H](C)C(=O)[C@H](C)C[C@](C)(OC)[C@H](OC1O[C@H](C)C[C@H](N(C)C)[C@H]1O)[C@@H](C)C(=O)[C@@H](C)C(=O)O[C@@H]2CC (stereo partly drawn) [XXXVII]	–	–	–	–	–	–	–	–	–	–	–	0.78	1.56	12.5	6.25	> 50	6.25	0.2	0.2	0.1	MIC, strain ID A [20]: 0.2; MIC, strain ID D [5]: 0.2; MIC, strain ID H [7]: 6.25 µg/mL (≈ 7.16 µM); MIC, strain ID N [9]: =0.05; MIC, strain ID P [10]: 0.78; MIC, strain ID M [11]: =0.05; MIC, strain ID G [12]: =0.05; MIC, strain ID O [13]: =0.05
C=C[C@]12OC(=O)N(CCCCn3cnc(-c4cccnc4Cl)c3)[C@@H]1[C@@H](C)C(=O)[C@H](C)C[C@](C)(OC)[C@H](OC1O[C@H](C)C[C@H](N(C)C)[C@H]1O)[C@@H](C)C(=O)[C@@H](C)C(=O)O[C@@H]2CC (stereo partly drawn) [XXXVI]	–	–	–	–	–	–	–	–	–	–	–	1.56	1.56	6.25	6.25	> 50	6.25	0.1	0.1	0.1	MIC, strain ID A [20]: 0.2; MIC, strain ID D [5]: 0.2; MIC, strain ID H [7]: 3.13 µg/mL (≈ 3.65 µM); MIC, strain ID N [9]: =0.05; MIC, strain ID P [10]: 0.78; MIC, strain ID M [11]: =0.05; MIC, strain ID G [12]: =0.05; MIC, strain ID O [13]: =0.05
C=C[C@]12OC(=O)N(CCCCn3cnc(-c4cnccc4OC)c3)[C@@H]1[C@@H](C)C(=O)[C@H](C)C[C@](C)(OC)[C@H](OC1O[C@H](C)C[C@H](N(C)C)[C@H]1O)[C@@H](C)C(=O)[C@@H](C)C(=O)O[C@@H]2CC (stereo partly drawn) [XXXV]	–	–	–	–	–	–	–	–	–	–	–	0.78	1.56	6.25	6.25	> 50	6.25	0.1	0.2	0.1	MIC, strain ID A [20]: 0.2; MIC, strain ID D [5]: 0.1; MIC, strain ID H [7]: 6.25 µg/mL (≈ 7.32 µM); MIC, strain ID N [9]: =0.05; MIC, strain ID P [10]: 0.78; MIC, strain ID M [11]: =0.05; MIC, strain ID G [12]: =0.05; MIC, strain ID O [13]: =0.05
